# Patent publication EP0207358A2, “Growth-promoting agent” (BAYER AG, priority 1985, dated 1987)
# Test system: Weibliche Laborratten
# Assay: Rat feeding trial (Ratten-Fütterungsversuch)
# Type: in vivo
# Conditions: female SPF Wistar rats 90-110 g; active substance mixed into standard rat feed ad lib; 13-day trial; compared with control group on feed without active substance
# Source text: Weibliche Laborratten 90-110 g schwer vom Typ SPF Wistar (Züchtung Hagemann) werden ad lib mit Standard-Rattenfutter, das mit der gewünschten Menge Wirkstoff versetzt ist, gefüttert. Jeder Versuchsansatz wird mit Futter der identischen Charge durchgeführt, so daß Unterschiede in der Zusammensetzung des Futters die Vergleichbarkeit der Ergebnisse nicht beeinträchtigen können.
# Die Ratten erhalten Wasser ad lib.
# Jeweils 12 Ratten bilden eine Versuchsgruppe und werden mit Futter, das mit der gewünschten Menge Wirkstoff versetzt ist, gefüttert. Eine Kontrollgruppe erhält Futter ohne Wirkstoff. Das durchschnittliche Körpergewicht sowie die Streuung in den Körpergewichten der Ratten ist in jeder Versuchsgruppe gleich, so daß eine Vergleichbarkeit der Versuchsgruppen untereinander gewährleistet ist.
# Gewichtszunahme und Futterverbrauch werden während des 13-tägigen Versuches bestimmt.
row,Compound,Gewichtszunahmen im Vergleich zur Kontrolle
1,CCOC(=O)c1c(NC(=O)N[C@@H](CCSC)C(=O)OC)sc(-c2ccccc2)c1C [Beispiel 1],deutliche Gewichtszunahmen
2,CC[C@H](C)[C@H](NC(=O)Nc1cccc2ccccc12)C(=O)O [Beispiel 2],deutliche Gewichtszunahmen
3,COC(=O)[C@H](Cc1c[nH]c2ccccc12)NC(=O)Nc1cccc2ccccc12 [Beispiel 3],deutliche Gewichtszunahmen
